From US8475823B2, “Baclofen formulation in a polyorthoester carrier” (Medtronic, Inc., priority 2008, dated 2013) come the findings set out here.

Experiment [1] deals with acetic acid induced bladder hypermotility (frequency of bladder contraction reflexes). Nature of the experiment: Epidural infusion of baclofen in a rat model of bladder pain, intravesical acetic acid infusion (painful bladder activity). In kind it is in vivo. Conditions: female rat, epidural infusion 10 μg/day. The procedure: FIG. 2 is a graphic representation of epidural infusion of baclofen in rats treated with an intravesical infusion of acetic acid as described in Example 4. Baseline bladder activity was measured before epidural drug treatment. The columns and error bars represent the mean and SEM values of 10 rats per group. Asterisks indicate statistically significant dose effects compared to baseline as determined by post-hoc Dunnett Multiple Comparison Test.
(§1) An animal model that has been used frequently to study pelvic pain conditions is a rat model of bladder pain. In this model, a female rat was lightly anesthetized with isoflurane and a transurethral catheter was placed into the bladder. The catheter was connected to a pressure transducer so that the pressure within the bladder could be continuously monitored and recorded over time. Fluid was continuously infused into the bladder using a syringe pump at a rate of 0.1 mL/min to cause the bladder to contract repeatedly each time it became full. This is referred to as a volume-evoked micturition reflex or contraction. […]
In order to evaluate the effects of epidurally administered analgesics on normal and painful bladder activity (frequency of reflex bladder contractions), test drugs were continuously administered via an epidural catheter with the tip placed in the mid-lumbar epidural space. […] In the experiments depicted in FIGS. 1 and 2, the baseline bladder activity was measured before implanting the epidural infusion system, the infusion system was implanted on day 0 and cystometrograms were recorded on three consecutive days during which baclofen (10 μg/day) was infused into the lumbar epidural space.
Baclofen at 10 μg/day reduced acetic acid induced bladder hypermotility by approximately 3 fold on day 3. The frequency of bladder contraction observed during acetic acid infusion and epidural baclofen administration was similar to the baseline bladder activity measured during saline infusion (0.195±0.047 day 3 acetic acid and epidural baclofen vs 0.193±0.035 baseline saline).

Experiment [2] has as its system normal bladder activity (frequency of reflex bladder contractions). Briefly: Epidural infusion of baclofen in a rat model of bladder pain, intravesical saline infusion (normal bladder activity). It counts as in vivo. The settings on record: female rat, epidural infusion 10 μg/day. As for the experimental part: FIG. 1 is a graphic representation of epidural infusion of baclofen in rats treated with an intravesical infusion of saline. Baseline bladder activity was measured before epidural drug treatment as described in Example 4. The columns and error bars represent the mean and SEM values of 10 rats per group. Asterisks indicate statistically significant dose effects compared to baseline as determined by post-hoc Dunnett Multiple Comparison Test.
as §1, with “contraction. A repeated series of bladder contractions (pressure spikes) over time was collected using this method. To mimic normal bladder activity, 0.9% saline was infused into the bladder; to mimic painful bladder activity, a dilute solution of acetic acid (0.5%) was infused into the bladder.” for “contraction.”

For the molecule `NCC(CC(=O)O)c1ccc(Cl)cc1` (centres unmarked) [baclofen, 4-amino-3-(4-chlorophenyl)butanoic acid], the “frequency of bladder contraction reflexes during acetic acid infusion” value in experiment [1] (0.5% acetic acid, all three days, vs baseline) was “significantly reduced”. For the same molecule, in experiment [1] (day 3), the “reduction of acetic acid induced bladder hypermotility” value was “approximately 3 fold”. Also, in experiment [1] (day 3, mean ± SEM, 10 rats per group), the “frequency of bladder contraction during acetic acid infusion and epidural baclofen administration” value is on record as 0.195±0.047 reflexes per min. Further, in experiment [2] (days 1 and 2, vs baseline), the “effects on normal bladder activity measured during saline infusion” value is “minimal effects”. The “contraction rate relative to the baseline reflex contraction rate” value in experiment [2] (saline infusion, day three) was “statistically significant reductions”.
